Assay results: patent US20090030024A1, “THIAZOLES AS FUNGICIDES” (priority 2005, published 2009)
Marks after values point to notes of the source that are not given here.

Test: logP determination by retention times (calibration with alkan-2-ones)
Settings: not given

Row | Structure (SMILES) | chromatographic logP
1 | Cc1nc(C2CC2)sc1-c1ccnc(Nc2cccc(O)c2)n1 [Example 148, 3-{[4-(2-cyclopropyl-4-methyl-1,3-thiazol-5-yl)pyrimidin-2-yl]amino}phenol] | 2.24
2 | COCc1nc(C)c(-c2ccnc(Nc3ccc(C(F)(F)F)cc3)n2)s1 [Example 300, 4-[2-(methoxymethyl)-4-methyl-1,3-thiazol-5-yl]-N-[4-(trifluoromethyl)phenyl]pyrimidine-2-amine] | 3.59
3 | Cc1nc(C(C)C)sc1-c1ccnc(Nc2ccc(F)c(F)c2)n1 [Example 401, N-(3,4-difluorophenyl)-4-(2-isopropyl-4-methyl-1,3-thiazol-5-yl)pyrimidine-2-amine] | 3.95
4 | COc1ccc(Nc2nccc(-c3sc(C4CC4)nc3C)n2)cn1 [Example 228, 4-(2-cyclopropyl-4-methyl-1,3-thiazol-5-yl)-N-(6-methoxypyridin-3-yl)pyrimidine-2-amine] | 2.53
5 | COc1cc(Nc2nccc(-c3sc(C)nc3C(F)(F)F)n2)cc(OC)c1OC [Example 310, 4-[2-methyl-4-(trifluoromethyl)-1,3-thiazol-5-yl]-N-(3,4,5-trimethoxyphenyl)pyrimidine-2-amine] | 3.02
6 | Cc1cc(Nc2nccc(-c3sc(C4CC4)nc3C)n2)ccc1F [Example 226, 4-(2-cyclopropyl-4-methyl-1,3-thiazol-5-yl)-N-(4-fluoro-3-methylphenyl)pyrimidine-2-amine] | 3.71
7 | Cc1nc(C2CC2)sc1-c1ccnc(Nc2ccc(F)cc2)n1 [Example 227, 4-(2-cyclopropyl-4-methyl-1,3-thiazol-5-yl)-N-(4-fluorophenyl)pyrimidine-2-amine] | 3.31
8 | CCc1nc(C)c(-c2ccnc(Nc3cccc(O)c3)n2)s1 [Example 150, 3-{[4-(2-ethyl-4-methyl-1,3-thiazol-5-yl)pyrimidin-2-yl]amino}phenol] | 2.12
9 | Cc1ncsc1-c1ccnc(Nc2cccc(C(F)(F)F)c2)n1 [Example 267, 4-(4-methyl-1,3-thiazol-5-yl)-N-[3-(trifluoromethyl)phenyl]pyrimidine-2-amine] | 3.14
10 | COCc1nc(C)c(-c2ccnc(Nc3ccc(N(C)C)c(Cl)c3)n2)s1 [Example 65, 2-chloro-N4-{4-[2-(methoxymethyl)-4-methyl-1,3-thiazol-5-yl]pyrimidin-2-yl}-N1,N1-dimethylbenzene-1,4-diamine] | 2.04
11 | Cc1nc(C2CCCCC2)sc1-c1ccnc(Nc2ccc(C(F)(F)F)cc2)n1 [Example 218, 4-(2-cyclohexyl-4-methyl-1,3-thiazol-5-yl)-N-[4-(trifluoromethyl)phenyl]pyrimidine-2-amine] | 5.62

Same assay, conditions: * HPLC reversed-phase C18, 40° C., mobile phase 0.1% aqueous formic acid and acetonitrile, linear gradient 10% to 95% acetonitrile

Row | Structure (SMILES) | logP
12 | Cc1nc(N(C)C)sc1-c1ccnc(Nc2cccc(Cl)c2)n1 [Example 687, N-(3-chlorophenyl)-4-[2-(dimethylamine)-4-methyl-1,3-thiazol-5-yl]pyrimidine-2-amine] | 2.62*
13 | CNc1nc(C)c(-c2ccnc(Nc3cccc(NC(C)=O)c3)n2)s1 [Example 684, N-[3-({4-[4-methyl-2-(methylamine)-1,3-thiazol-5-yl]pyrimidin-2-yl}amino)phenyl]acetamide] | 1.26*
14 | CNc1nc(C)c(-c2ccnc(Nc3cccc(CNC(=O)OC(C)(C)C)c3)n2)s1 [Example 658, tert-butyl-[3-({4-[4-methyl-2-(methylamine)-1,3-thiazol-5-yl]pyrimidin-2-yl}amino)benzyl]carbamate] | 1.99*
15 | Cc1cc(Nc2nccc(-c3sc(N(C)C)nc3C(F)(F)F)n2)ccc1F [Example 692, 4-[2-(dimethylamine)-4-(trifluoromethyl)-1,3-thiazol-5-yl]-N-(4-fluoro-3-methylphenyl)pyrimidine-2-amine] | 4.43*

Same assay, conditions: HPLC, reversed-phase C 18, EEC Directive 79/831 Annex V.A8; method *: 40° C., 0.1% aqueous formic acid and acetonitrile, linear gradient 10% to 95% acetonitrile

Row | Structure (SMILES) | logP
16 | Cc1nc2c(s1)-c1nc(Nc3cccc(O)c3)ncc1CC2 [Example 126, 3-[(2-methyl-4,5-dihydro[1,3]thiazole[4,5-h]quinazolin-8-yl)amino]phenol] | 1.77*

Same assay, conditions: logP, * HPLC reversed-phase C18, 40° C., mobile phase 0.1% aqueous formic acid and acetonitrile, linear gradient 10% to 95% acetonitrile

Row | Structure (SMILES) | chromatographic logP
17 | Cc1nc(N2CCOCC2)sc1-c1ccnc(Nc2ccccc2)n1 [Example 731, 4-(4-methyl-2-morpholin-4-yl-1,3-thiazol-5-yl)-N-phenylpyrimidine-2-amine] | 2.25
18 | COCC(C)Nc1nc(C)c(-c2ccnc(Nc3ccc(F)cc3)n2)s1 (stereo not drawn) [Example 488, N-(4-fluorophenyl)-4-{2-[(2-methoxy-1-methylethyl)amino]-4-methyl-1,3-thiazol-5-yl}pyrimidine-2-amine] | 2
19 | Clc1ccc(-c2ncc(-c3ccnc(Nc4cccc(Cl)c4)n3)s2)cc1 [Example 795, N-(3-chlorophenyl)-4-[2-(4-chlorophenyl)-1,3-thiazol-5-yl]pyrimidine-2-amine] | 5.57
20 | CC(=O)Nc1nc(C)c(-c2ccnc(Nc3ccccc3)n2)s1 [Example 560, N-[5-(2-anilinopyrimidin-4-yl)-4-methyl-1,3-thiazol-2-yl]acetamide] | 2.09
21 | COCC(C)Nc1nc(C)c(-c2ccnc(Nc3cccc(NC(C)=O)c3)n2)s1 (stereo not drawn) [Example 569, N-{3-[(4-{2-[(2-methoxy-1-methylethyl)amino]-4-methyl-1,3-thiazol-5-yl}pyrimidin-2-yl)amino]phenyl}acetamide] | 1.47
22 | Cc1nc(C(F)F)c(-c2ccnc(Nc3ccccc3)n2)s1 [Example 710, 4-[4-(difluoromethyl)-2-methyl-1,3-thiazol-5-yl]-N-phenylpyrimidine-2-amine] | 2.97
23 | COCc1nc(C)c(-c2ccnc(Nc3cc(OC)cc(OC)c3)n2)s1 [Example 764, N-(3,5-dimethoxyphenyl)-4-[2-(methoxymethyl)-4-methyl-1,3-thiazol-5-yl]pyrimidine-2-amine] | 2.73
24 | Cc1nc(C2CC2)sc1-c1ccnc(Nc2ccc3c(c2)OCO3)n1 [Example 617, N-1,3-benzodioxol-5-yl-4-(2-cyclopropyl-4-methyl-1,3-thiazol-5-yl)pyrimidine-2-amine] | 2.96
25 | COc1cc(Nc2nccc(-c3cnc(-c4ccc(Cl)cc4)s3)n2)cc(OC)c1OC [Example 792, 4-[2-(4-chlorophenyl)-1,3-thiazol-5-yl]-N-(3,4,5-trimethoxyphenyl)pyrimidine-2-amine] | 4.12
26 | CSc1nc(C)c(-c2ccnc(Nc3cccc(Cl)c3)n2)s1 [Example 435, N-(3-chlorophenyl)-4-[4-methyl-2-(methylthio)-1,3-thiazol-5-yl]pyrimidine-2-amine] | 4.08
27 | COCc1nc(C)c(-c2ccnc(Nc3ccc(F)c(C)c3)n2)s1 [Example 478, N-(4-fluoro-3-methylphenyl)-4-[2-(methoxymethyl)-4-methyl-1,3-thiazol-5-yl]pyrimidine-2-amine] | 3.14
28 | CCc1nc(C)c(-c2ccnc(Nc3ccc(F)c(F)c3)n2)s1 [Example 755, N-(3,4-difluorophenyl)-4-(2-ethyl-4-methyl-1,3-thiazol-5-yl)pyrimidine-2-amine] | 3.44
29 | CCc1nc(C)c(-c2ccnc(Nc3cccc(Cl)c3)n2)s1 [Example 424, N-(3-chlorophenyl)-4-(2-ethyl-4-methyl-1,3-thiazol-5-yl)pyrimidine-2-amine] | 3.72
30 | COCCCNc1nc(C)c(-c2ccnc(Nc3cccc(Cl)c3)n2)s1 [Example 726, N-(3-chlorophenyl)-4-{2-[(3-methoxypropyl)amino]-4-methyl-1,3-thiazol-5-yl}pyrimidine-2-amine] | 2.28
31 | CCCC(=O)c1ccc(Nc2nccc(-c3sc(CC)nc3C)n2)cc1 [Example 733, 1-(4-{[4-(2-ethyl-4-methyl-1,3-thiazol-5-yl)pyrimidin-2-yl]amino}phenyl)butan-1-one] | 3.5
32 | COc1ccc(Nc2nccc(-c3sc(C)nc3C)n2)cc1 [Example 788, 4-(2,4-dimethyl-1,3-thiazol-5-yl)-N-(4-methoxyphenyl)pyrimidine-2-amine] | 2.34
33 | CCc1nc(C)c(-c2ccnc(Nc3ccc(OC)c(O)c3)n2)s1 [Example 791, 5-{[4-(2-ethyl-4-methyl-1,3-thiazol-5-yl)pyrimidin-2-yl]amino}-2-methoxyphenol] | 2.09

Same assay, conditions: logP, ** HPLC reversed-phase C18, 43° C., mobile phase 0.1% aqueous phosphoric acid and acetonitrile, linear gradient 10% to 95% acetonitrile

Row | Structure (SMILES) | chromatographic logP
34 | Cc1nc(C)c(-c2ccnc(Nc3ccc(Cl)cc3)n2)s1 [Example 462, N-(4-chlorophenyl)-4-(2,4-dimethyl-1,3-thiazol-5-yl)pyrimidine-2-amine] | 3.09

Same assay, conditions: logP, values marked *: HPLC on reversed-phase C 18, 40° C., mobile phase 0.1% aqueous formic acid and acetonitrile, linear gradient 10% to 95% acetonitrile

Row | Structure (SMILES) | chromatographic logP
35 | COc1cc(Nc2ncc(Br)c(-c3sc(C)nc3C)n2)cc(OC)c1OC [Example 906, 5-bromo-4-(2,4-dimethyl-1,3-thiazol-5-yl)-N-(3,4,5-trimethoxyphenyl)pyrimidine-2-amine] | 2.85
36 | CCc1nc(C)c(-c2nc(Nc3ccccc3Cl)ncc2Cl)s1 [Example 878, 5-chloro-N-(2-chlorophenyl)-4-(2-ethyl-4-methyl-1,3-thiazol-5-yl)pyrimidine-2-amine] | 4.62
37 | COCCCNc1nc(C)c(-c2ccnc(Nc3cccc(N4CCCC4=O)c3)n2)s1 [Example 861, 1-{3-[(4-{2-[(3-methoxypropyl)amino]-4-methyl-1,3-thiazol-5-yl}pyrimidin-2-yl)amino]phenyl}pyrrolidin-2-one] | 1.62
38 | COCCOc1nc(C)c(-c2ccnc(Nc3ccc(C(C)=O)cc3)n2)s1 [Example 916, 1-[4-({4-[2-(2-methoxyethoxy)-4-methyl-1,3-thiazol-5-yl]pyrimidin-2-yl}amino)phenyl]ethanone] | 2.58
39 | Cc1nc(NCCO)sc1-c1ccnc(Nc2ccc(F)cc2)n1 [Example 891, 2-[(5-{2-[(4-fluorophenyl)amino]pyrimidin-4-yl}-4-methyl-1,3-thiazol-2-yl)amino]ethanol] | 1.5
